The target of data set [1] is T1, metabotropic glutamate receptors mGluR2 (Rattus norvegicus, UniProt P31421).
T1 construct: expressed in transfected cells
Briefly: Effects of test compounds on cAMP accumulation (antagonism of glutamic acid suppression of Forskolin-stimulated cAMP) in CHO cells expressing mGluR2. In kind it is cell-based. The conditions noted are these: CHO cells stably expressing mGluR2; 50% inhibition of suppression by 30 μM glutamic acid of cAMP increase by 10^-5 M Forskolin; cAMP EIA kit. The protocol: Experimental Example (Effects of Test Compounds on cAMP Accumulation)
CHO cells stably expressing metabotropic glutamate receptors mGluR2 were seeded in a 96-well plate in the ratio of 1.26×10^4 cells/well/0.32 cm^2/150 μl in Dalbeco-modified Eagle medium [1% proline, 50 units/ml penicillin, 50 μg/ml streptomycin, 2 mM L-glutamine (added when used)] containing 10% dialyzed fetal bovine serum, and were cultured for 2 days at 37° C. under an atmosphere of 5% CO2. Subsequently, the medium was replaced with an L-glutamine free medium. Four hours later, the supernatant liquid was aspirated. […] A study was carried out for the antagonistic effects of the test compounds on the Forskolin stimulation cAMP accumulation quantity suppression [for control, the conditions were set with no addition of the compounds (Tanabe et al., Neuron, 8, 169-179 (1992))]. The reactions were quenched by adding 100 μl of ice-cooled ethanol, the entire quantity of the supernatant liquid was collected in a separate plate, and was subsequently dried up at normal temperature with an evaporator, followed by preservation at −20° C. In the dried-up samples, the quantity of cAMP was measured using a cAMP EIA kit (from the Amasham company). The control value was subtracted from each cAMP quantity. […]
Background: Changes in cAMP serve as a functional read-out for many G protein-coupled receptors.

Drawing on patent publication US6770676B2, “Dicarboxylic acid derivatives” (Taisho Pharmaceutical Co., Ltd., priority 2000, dated 2004), this text covers IC50 and melting point for 2 compounds.

Molecules are shown by their SMILES.

T1 sequence (P31421 19-872): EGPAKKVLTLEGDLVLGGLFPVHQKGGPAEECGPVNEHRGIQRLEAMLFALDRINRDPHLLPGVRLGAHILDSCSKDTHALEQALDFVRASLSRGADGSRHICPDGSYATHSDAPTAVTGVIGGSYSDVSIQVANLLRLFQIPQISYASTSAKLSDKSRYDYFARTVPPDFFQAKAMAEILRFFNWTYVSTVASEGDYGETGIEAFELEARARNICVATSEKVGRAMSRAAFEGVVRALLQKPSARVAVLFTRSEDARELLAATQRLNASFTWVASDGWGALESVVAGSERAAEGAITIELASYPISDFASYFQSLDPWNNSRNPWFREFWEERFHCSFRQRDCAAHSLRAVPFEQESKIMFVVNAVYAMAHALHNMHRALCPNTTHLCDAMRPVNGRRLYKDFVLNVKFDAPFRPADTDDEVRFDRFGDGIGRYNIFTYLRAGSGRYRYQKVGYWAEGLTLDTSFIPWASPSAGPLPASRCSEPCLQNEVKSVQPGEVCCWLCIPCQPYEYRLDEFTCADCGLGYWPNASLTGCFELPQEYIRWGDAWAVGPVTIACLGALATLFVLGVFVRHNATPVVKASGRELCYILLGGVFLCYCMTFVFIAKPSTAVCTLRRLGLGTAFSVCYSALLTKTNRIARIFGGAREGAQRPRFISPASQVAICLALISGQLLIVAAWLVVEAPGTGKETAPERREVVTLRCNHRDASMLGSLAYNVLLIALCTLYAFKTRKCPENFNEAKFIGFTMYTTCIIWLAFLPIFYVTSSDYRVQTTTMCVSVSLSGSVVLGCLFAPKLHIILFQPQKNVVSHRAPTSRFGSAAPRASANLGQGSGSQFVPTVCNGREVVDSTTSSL

The term IC50 denotes the midpoint of a concentration-inhibition curve. Read a high IC50 as weaker potency in that assay. A word on the melting point: it is the temperature of the solid-liquid transition. On to `N[C@@]1(C(=O)O)[C@H](O)C[C@@H]2[C@H]1[C@@]2(F)C(=O)O` [Example 8, (1R,2R,3R,5R,6R)-2-amino-6-fluoro-3-hydroxy-bicyclo[3.1.0]hexane-2,6-dicarboxylic acid], for which the melting point is > 172 °C (dec.). The compound further had an IC50 in data set [1] of 476 nM.
Turning to `N[C@@]1(C(=O)O)C=C[C@@H]2[C@H]1[C@@]2(F)C(=O)O` [Example 7, (1R,2S,5R,6R)-2-amino-6-fluoro-bicyclo[3.1.0]hex-3-ene-2,6-dicarboxylic acid], the melting point was > 174 °C (dec.).
